Experimental data reported in ChEMBL document CHEMBL4480416, “Inducing Secondary Metabolite Production by Co-culture of the Endophytic Fungus Phoma sp. and the Symbiotic Fungus Armillaria sp” (2019).
In brackets after ≈: the same amount, converted by molar mass. Activity calls are given as the source filed them. The calls are words filed in the database; no cut-off is given here.

How the values were obtained:
Candida albicans = assay: Antifungal activity against Candida albicans at 0.5 to 256 ug/ml after 4 days by two-fold serial micro dilution method; assay type: functional, organism-based
HL-60 = assay: Cytotoxicity against human HL60 cells assessed as reduction in cell viability at 40 uM after 48 hrs by MTS assay; assay type: functional, cell-based
SMMC-7721 = assay: Cytotoxicity against human SMMC7721 cells assessed as reduction in cell viability at 40 uM after 48 hrs by MTS assay; assay type: functional, cell-based
A549 = assay: Cytotoxicity against human A549 cells assessed as reduction in cell viability at 40 uM after 48 hrs by MTS assay; assay type: functional, cell-based
MCF7 = assay: Cytotoxicity against human MCF7 cells assessed as reduction in cell viability at 40 uM after 48 hrs by MTS assay; assay type: functional, cell-based
SW480 = assay: Cytotoxicity against human SW480 cells assessed as reduction in cell viability at 40 uM after 48 hrs by MTS assay; assay type: functional, cell-based
Bacillus subtilis = assay: Antimicrobial activity against Bacillus subtilis at 0.5 to 256 ug/ml after 24 hrs by two-fold serial micro dilution method; assay type: functional
Escherichia coli = assay: Antimicrobial activity against Escherichia coli at 0.5 to 256 ug/ml after 24 hrs by two-fold serial micro dilution method; assay type: functional
Staphylococcus aureus = assay: Antimicrobial activity against Staphylococcus aureus at 0.5 to 256 ug/ml after 24 hrs by two-fold serial micro dilution method; assay type: functional

Compound	MIC (Candida albicans) [µg/mL]	Activity (HL-60)	Activity (SMMC-7721)	Activity (A549)	Activity (MCF7)	Activity (SW480)	Activity (Bacillus subtilis)	Activity (Escherichia coli)	Activity (Staphylococcus aureus)	Activity (Candida albicans)	MIC (Bacillus subtilis) [µg/mL]	MIC (Escherichia coli) [µg/mL]	MIC (Staphylococcus aureus) [µg/mL]
NYSTATIN	4	–	–	–	–	–	–	–	–	–	–	–	–
CCCC[C@@H](O)[C@H](O)c1ccccc1O	–	inactive	inactive	inactive	inactive	inactive	inactive	inactive	inactive	inactive	–	–	–
CCC[C@H](O)C/C=C/[C@@H](O)CCCC(=O)OCCCCCNC(C)=O	–	inactive	inactive	inactive	inactive	inactive	inactive	inactive	inactive	inactive	–	–	–
CCC[C@H](O)C/C=C/[C@@H](O)CCCC(=O)OC[C@@H](O)CO	–	inactive	inactive	inactive	inactive	inactive	inactive	inactive	inactive	inactive	–	–	–
CCC[C@@H](O)[C@@H]1Oc2ccccc2[C@@H]1O	–	inactive	inactive	inactive	inactive	inactive	inactive	inactive	inactive	inactive	–	–	–
CCC[C@H](O)C/C=C/[C@@H](O)CCCC(=O)OC	–	inactive	inactive	inactive	inactive	inactive	inactive	inactive	inactive	inactive	–	–	–
NC[C@H]1O[C@H](O[C@H]2[C@H](O)[C@@H](O[C@H]3O[C@H](CO)[C@@H](O)[C@H](N)[C@H]3O)[C@H](N)C[C@@H]2N)[C@H](O)[C@@H](O)[C@@H]1O [KANAMYCIN]	–	–	–	–	–	–	–	–	–	–	4 (≈ 8.26 µM)	8 (≈ 16.5 µM)	4 (≈ 8.26 µM)
